# Measurements reported in ChEMBL document CHEMBL1909046, “DrugMatrix in vitro pharmacology data”.
# pIC50, pKi: −log10 of the molar value.
# Legend:
# [1] = molecular target: T1, Alpha-2A adrenergic receptor (Homo sapiens, UniProt P08913); format: cell membranes, Sf9, Membrane; settings: for pIC50: read-out: IC50; for all read-outs here: in other assays of this panel Not Active means under 50% inhibition at 10 µM
# T1 sequence (P08913 whole entry): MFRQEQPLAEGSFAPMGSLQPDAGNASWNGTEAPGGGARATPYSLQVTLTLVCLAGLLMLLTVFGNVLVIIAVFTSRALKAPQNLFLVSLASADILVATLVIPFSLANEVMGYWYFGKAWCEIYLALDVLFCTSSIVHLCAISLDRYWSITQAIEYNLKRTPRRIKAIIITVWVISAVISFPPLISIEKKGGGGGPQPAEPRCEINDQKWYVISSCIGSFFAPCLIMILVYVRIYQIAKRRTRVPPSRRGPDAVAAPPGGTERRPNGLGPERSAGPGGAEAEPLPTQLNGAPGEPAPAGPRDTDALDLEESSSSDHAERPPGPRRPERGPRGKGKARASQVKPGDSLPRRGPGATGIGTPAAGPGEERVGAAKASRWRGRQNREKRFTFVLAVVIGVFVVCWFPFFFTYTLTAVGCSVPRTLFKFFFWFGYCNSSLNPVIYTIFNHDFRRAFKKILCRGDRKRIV
# [2] = molecular target: 5-hydroxytryptamine receptor 2B (Homo sapiens, UniProt P41595); format: cell membranes, CHO-K1, Membrane; settings: for IC50 / Ki: cho-k1; for all read-outs here: in other assays of this panel Not Active means under 50% inhibition at 10 µM
# [3] = molecular target: T2, 5-hydroxytryptamine receptor 2C (Homo sapiens, UniProt P28335); test: DRUGMATRIX: Serotonin (5-Hydroxytryptamine) 5-HT2C radioligand binding (ligand: [3H] Mesulergine); format: cell membranes, CHO-K1, Membrane; settings: Not Active = under 50% inhibition at 10 µM; for IC50 / Ki: cho-k1
# T2 sequence (P28335 whole entry): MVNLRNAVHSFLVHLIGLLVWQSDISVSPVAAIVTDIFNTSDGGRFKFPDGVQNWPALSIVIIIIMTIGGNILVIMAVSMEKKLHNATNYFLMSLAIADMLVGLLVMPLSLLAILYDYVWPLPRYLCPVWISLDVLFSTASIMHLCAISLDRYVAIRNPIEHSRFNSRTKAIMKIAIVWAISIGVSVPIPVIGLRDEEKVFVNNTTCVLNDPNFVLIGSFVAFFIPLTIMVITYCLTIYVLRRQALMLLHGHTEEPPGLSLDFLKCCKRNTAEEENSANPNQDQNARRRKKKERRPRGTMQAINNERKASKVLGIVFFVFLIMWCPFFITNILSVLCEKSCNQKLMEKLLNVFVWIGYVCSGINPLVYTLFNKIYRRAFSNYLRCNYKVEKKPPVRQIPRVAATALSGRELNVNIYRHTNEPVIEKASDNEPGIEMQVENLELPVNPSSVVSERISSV
# [4] = molecular target: T3, Muscarinic acetylcholine receptor M5 (Homo sapiens, UniProt P08912); format: cell membranes, CHO-K1, Membrane; settings: for IC50 / Ki: cho-k1; for pIC50: read-out: IC50; for pKi: read-out: Ki; for all read-outs here: in other assays of this panel Not Active means under 50% inhibition at 10 µM
# T3 sequence (P08912 whole entry): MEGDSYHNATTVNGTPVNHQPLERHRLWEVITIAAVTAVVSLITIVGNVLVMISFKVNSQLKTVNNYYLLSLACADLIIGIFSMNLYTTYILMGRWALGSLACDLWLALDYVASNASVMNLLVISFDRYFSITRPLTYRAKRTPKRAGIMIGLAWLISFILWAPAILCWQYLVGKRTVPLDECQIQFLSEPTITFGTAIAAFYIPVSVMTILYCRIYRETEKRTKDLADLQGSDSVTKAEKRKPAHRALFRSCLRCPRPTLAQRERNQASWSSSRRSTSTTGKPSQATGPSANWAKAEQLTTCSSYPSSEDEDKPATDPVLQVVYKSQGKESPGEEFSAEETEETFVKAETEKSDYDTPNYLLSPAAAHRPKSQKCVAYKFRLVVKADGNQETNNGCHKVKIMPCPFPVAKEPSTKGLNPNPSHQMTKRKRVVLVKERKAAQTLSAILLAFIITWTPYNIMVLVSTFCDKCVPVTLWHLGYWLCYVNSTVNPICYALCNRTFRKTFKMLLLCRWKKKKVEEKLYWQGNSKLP
# [5] = DRUGMATRIX: Platelet-Derived Growth Factor (PDGF) radioligand binding (ligand: [125I] PDGF); format: cell-based; settings: nih3t3; Not Active = under 50% inhibition at 10 µM
# Sequence of 5-hydroxytryptamine receptor 2B (P41595 whole entry): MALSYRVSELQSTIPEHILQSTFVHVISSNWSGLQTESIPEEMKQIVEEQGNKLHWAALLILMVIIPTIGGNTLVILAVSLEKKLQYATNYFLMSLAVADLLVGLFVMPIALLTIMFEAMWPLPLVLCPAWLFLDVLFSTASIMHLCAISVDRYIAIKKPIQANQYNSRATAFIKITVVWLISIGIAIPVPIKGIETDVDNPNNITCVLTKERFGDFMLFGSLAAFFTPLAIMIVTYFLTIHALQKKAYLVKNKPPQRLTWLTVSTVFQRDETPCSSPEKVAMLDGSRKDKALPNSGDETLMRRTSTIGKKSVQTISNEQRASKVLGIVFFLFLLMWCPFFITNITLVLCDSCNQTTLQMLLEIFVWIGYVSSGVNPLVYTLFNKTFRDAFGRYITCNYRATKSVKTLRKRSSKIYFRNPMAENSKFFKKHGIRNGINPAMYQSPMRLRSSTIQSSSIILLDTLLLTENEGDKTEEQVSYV
molecule,measurement,setting,value
Nc1nc(N)nc(-c2cc(Cl)ccc2Cl)n1.O=C(O)/C=C\C(=O)O [IRSOGLADINE MALEATE],IC50,[1]; sf9,Not Active
same,IC50,[2],Not Active
same,IC50,[3],Not Active
same,IC50,[4],Not Active
same,IC50,[5],Not Active
same,Ki,[5],Not Active
CCC(C)n1ncn(-c2ccc(N3CCN(c4ccc(OCC5COC(Cn6cncn6)(c6ccc(Cl)cc6Cl)O5)cc4)CC3)cc2)c1=O (configuration not stated) [ITRACONAZOLE],IC50,[1]; sf9,Not Active
same,IC50,[2],Not Active
same,IC50,[3],Not Active
same,IC50,[4],Not Active
same,IC50,[5],Not Active
same,Ki,[5],Not Active
CCCCN1CCCC[C@H]1C(=O)Nc1c(C)cccc1C [LEVOBUPIVACAINE],IC50,[1]; sf9,Not Active
same,IC50,[2],Not Active
same,IC50,[3],Not Active
same,IC50,[4],Not Active
same,IC50,[5],Not Active
same,Ki,[5],Not Active
CCCCc1nc(Cl)c(CO)n1Cc1ccc(-c2ccccc2-c2nnn[nH]2)cc1 [LOSARTAN],IC50,[1]; sf9,Not Active
same,IC50,[2],Not Active
same,IC50,[3],Not Active
same,IC50,[4],Not Active
same,IC50,[5],Not Active
same,Ki,[5],Not Active
Sc1ncnc2nc[nH]c12 [MERCAPTOPURINE ANHYDROUS],IC50,[1]; sf9,Not Active
same,IC50,[2],Not Active
same,IC50,[3],Not Active
same,IC50,[4],Not Active
same,IC50,[5],Not Active
same,Ki,[5],Not Active
C[C@](N)(Cc1ccc(O)c(O)c1)C(=O)O [METHYLDOPA],IC50,[1]; sf9,Not Active
same,IC50,[2],Not Active
same,IC50,[3],Not Active
same,IC50,[4],Not Active
same,IC50,[5],Not Active
same,Ki,[5],Not Active
C[C@]12CCC(=O)C=C1CC[C@@H]1[C@@H]2CC[C@@]2(C)[C@H]1CC[C@]2(C)O [METHYLTESTOSTERONE],IC50,[1]; sf9,Not Active
same,IC50,[2],Not Active
same,IC50,[3],Not Active
same,IC50,[4],Not Active
same,IC50,[5],Not Active
same,Ki,[5],Not Active
Cc1ccccc1N1C(=O)c2cc(S(N)(=O)=O)c(Cl)cc2NC1C (configuration not stated) [METOLAZONE],IC50,[1]; sf9,Not Active
same,IC50,[2],Not Active
same,IC50,[3],Not Active
same,IC50,[4],Not Active
same,IC50,[5],Not Active
same,Ki,[5],Not Active
COCCc1ccc(OCC(O)CNC(C)C)cc1 (configuration not stated) [METOPROLOL],IC50,[1]; sf9,Not Active
same,IC50,[2],Not Active
same,IC50,[3],Not Active
same,IC50,[4],Not Active
same,IC50,[5],Not Active
same,Ki,[5],Not Active
CCn1cc(C(=O)O)c(=O)c2cc(F)c(N3CCNCC3)cc21 [NORFLOXACIN],IC50,[1]; sf9,Not Active
same,IC50,[2],Not Active
same,IC50,[3],Not Active
same,IC50,[4],Not Active
same,IC50,[5],Not Active
same,Ki,[5],Not Active
NC1=NC(=O)C(c2ccccc2)O1 (configuration not stated) [PEMOLINE],IC50,[1]; sf9,Not Active
same,IC50,[2],Not Active
same,IC50,[3],Not Active
same,IC50,[4],Not Active
same,IC50,[5],Not Active
same,Ki,[5],Not Active
Nc1nc2c(ncn2CCC(CO)CO)c(=O)[nH]1 [PENCICLOVIR],IC50,[1]; sf9,Not Active
same,IC50,[2],Not Active
same,IC50,[3],Not Active
same,IC50,[4],Not Active
same,IC50,[5],Not Active
same,Ki,[5],Not Active
C=C(C)C1(O)OC(=O)C=C1OC (configuration not stated) [PENICILLIC ACID],IC50,[1]; sf9,Not Active
same,IC50,[2],Not Active
same,IC50,[3],Not Active
same,IC50,[4],Not Active
same,IC50,[5],Not Active
same,Ki,[5],Not Active
CC1(C)S[C@@H]2[C@H](NC(=O)Cc3ccccc3)C(=O)N2[C@H]1C(=O)O [PENICILLIN G],IC50,[1]; sf9,Not Active
same,IC50,[2],Not Active
same,IC50,[3],Not Active
same,IC50,[4],Not Active
same,IC50,[5],Not Active
same,Ki,[5],Not Active
C1CCC(C(CC2CCCCN2)C2CCCCC2)CC1 (configuration not stated) [PERHEXILINE],IC50,[1]; sf9,Not Active
same,IC50,[2],Not Active
same,IC50,[3],Not Active
same,pIC50,[4],5.96
same,pKi,[4],6.10
same,IC50,[5],Not Active
same,Ki,[5],Not Active
CCOc1ccc(NC(C)=O)cc1 [PHENACETIN],IC50,[1]; sf9,Not Active
same,IC50,[2],Not Active
same,IC50,[3],Not Active
same,IC50,[4],Not Active
same,IC50,[5],Not Active
same,Ki,[5],Not Active
CNNCc1ccc(C(=O)NC(C)C)cc1 [PROCARBAZINE],IC50,[1]; sf9,Not Active
same,IC50,[2],Not Active
same,IC50,[3],Not Active
same,IC50,[4],Not Active
same,IC50,[5],Not Active
same,Ki,[5],Not Active
CN(C)CCCN1c2ccccc2Sc2ccccc21 [PROMAZINE],pIC50,[1],6.47
same,pKi,[1]; read-out: Ki,6.90
same,pIC50,[2]; read-out: IC50,6.46
same,pKi,[2]; read-out: Ki,6.66
same,pIC50,[3]; read-out: IC50,7.00
same,pKi,[3]; read-out: Ki,7.28
same,pIC50,[4],7.19
same,pKi,[4],7.34
same,IC50,[5],Not Active
same,Ki,[5],Not Active
CC(O)CO (configuration not stated) [PROPYLENE GLYCOL],IC50,[1]; sf9,Not Active
same,IC50,[2],Not Active
same,IC50,[3],Not Active
same,IC50,[4],Not Active
same,IC50,[5],Not Active
same,Ki,[5],Not Active
CADMIUM ACETATE,pIC50,[1]; sf9,5.34
same,IC50,[2],Not Active
same,Ki,[2],Not Active
same,IC50,[3],Not Active
same,Ki,[3],Not Active
same,IC50,[4],Not Active
same,Ki,[4],Not Active
same,IC50,[5],Not Active
same,Ki,[5],Not Active
LEAD (II) ACETATE,pIC50,[1]; sf9,5.44
same,IC50,[2],Not Active
same,Ki,[2],Not Active
same,IC50,[3],Not Active
same,Ki,[3],Not Active
same,IC50,[4],Not Active
same,Ki,[4],Not Active
same,IC50,[5],Not Active
same,Ki,[5],Not Active
LIPOPOLYSACCHARIDE E. COLI O55:B5,IC50,[1]; sf9,Not Active
same,Ki,[1]; sf9,Not Active
same,IC50,[2],Not Active
same,Ki,[2],Not Active
same,IC50,[3],Not Active
same,Ki,[3],Not Active
same,IC50,[4],Not Active
same,Ki,[4],Not Active
same,IC50,[5],Not Active
same,Ki,[5],Not Active
